# Data: PubChem BioAssay AID2060624 (Molecular Pharmacology Branch, DTP, NCI, 2025)
# Test system: 217524-143-R1-J4-PDC spheroids with HUVEC/MSC, viability
# Experiment: Anticancer human tumor 217524-143-R1-J4-PDC patient-derived pancreatic carcinoma cell line growth inhibition [CLK]
# Conditions: for IC50: curve of first compound; for viability, T/C: stronger effect = lower value
# Procedure, shortened: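 Patient-derived tumor cells grown as complex spheroids with HUVEC endothelial cells and mesenchymal stem cells, treated with drug combinations. Concentrations descend in half-log steps from near clinical Cmax, or from 10 microM if Cmax unknown.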
# [1] = second compound 0.0316 µM, first compound 0.0316 µM
# [2] = second compound 0.0316 µM, first compound 0.1 µM
# [3] = second compound 0.0316 µM, first compound 0.316 µM
# [4] = second compound 0.0316 µM, first compound 1 µM
# [5] = second compound 0.0316 µM, first compound 3.16 µM
# [6] = second compound 0.0316 µM, first compound 10 µM
# [7] = second compound 0.1 µM, first compound 0.0316 µM
# [8] = second compound 0.1 µM, first compound 0.1 µM
# [9] = second compound 0.1 µM, first compound 0.316 µM
# [10] = second compound 0.1 µM, first compound 1 µM
# [11] = second compound 0.1 µM, first compound 3.16 µM
# [12] = second compound 0.1 µM, first compound 10 µM
# [13] = second compound 0.316 µM, first compound 0.0316 µM
# [14] = second compound 0.316 µM, first compound 0.1 µM
# [15] = second compound 0.316 µM, first compound 0.316 µM
# [16] = second compound 0.316 µM, first compound 1 µM
# [17] = second compound 0.316 µM, first compound 3.16 µM
# [18] = second compound 0.316 µM, first compound 10 µM
# [19] = second compound 1 µM, first compound 0.0316 µM
# [20] = second compound 1 µM, first compound 0.1 µM
# [21] = second compound 1 µM, first compound 0.316 µM
# [22] = second compound 1 µM, first compound 1 µM
# [23] = second compound 1 µM, first compound 3.16 µM
# [24] = second compound 1 µM, first compound 10 µM
# [25] = second compound 3.16 µM, first compound 0.0316 µM
# [26] = second compound 3.16 µM, first compound 0.1 µM
# [27] = second compound 3.16 µM, first compound 0.316 µM
# [28] = second compound 3.16 µM, first compound 1 µM
# [29] = second compound 3.16 µM, first compound 3.16 µM
# [30] = second compound 3.16 µM, first compound 10 µM
# [31] = second compound 10 µM, first compound 0.0316 µM
# [32] = second compound 10 µM, first compound 0.1 µM
# [33] = second compound 10 µM, first compound 0.316 µM
# [34] = second compound 10 µM, first compound 1 µM
# [35] = second compound 10 µM, first compound 3.16 µM
# [36] = second compound 10 µM, first compound 10 µM
# 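Further: spheroids exposed to agents for seven days before reading.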
# 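Wherever viability, T/C is given: 100% = DMSO vehicle control viability.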
structure (smiles),measurement,setting,value
CC(=O)O[C@H]1C(=O)[C@@]2(C)[C@H]([C@H](OC(=O)c3ccccc3)[C@]3(O)C[C@H](OC(=O)[C@H](O)[C@@H](NC(=O)c4ccccc4)c4ccccc4)C(C)=C1C3(C)C)[C@]1(OC(C)=O)CO[C@@H]1C[C@@H]2O + CN1CCN(c2cc(C(=O)Nc3cc4cc(-c5cnn(C)c5)ccc4cn3)ccn2)CC1,IC50,second compound 0.0316 µM,< 31.6 nM
same,IC50,second compound 0.1 µM,< 31.6 nM
same,IC50,second compound 0.316 µM,< 31.6 nM
same,IC50,second compound 1 µM,< 31.6 nM
same,IC50,second compound 3.16 µM,< 31.6 nM
same,IC50,second compound 10 µM,< 31.6 nM
same,"viability, T/C",[1],14.5%
same,"viability, T/C",[2],10.6%
same,"viability, T/C",[3],10.8%
same,"viability, T/C",[4],11.5%
same,"viability, T/C",[5],12.1%
same,"viability, T/C",[6],16.4%
same,"viability, T/C",[7],11.9%
same,"viability, T/C",[8],12.1%
same,"viability, T/C",[9],9.82%
same,"viability, T/C",[10],10.7%
same,"viability, T/C",[11],10.8%
same,"viability, T/C",[12],13.2%
same,"viability, T/C",[13],11.1%
same,"viability, T/C",[14],11.3%
same,"viability, T/C",[15],10.7%
same,"viability, T/C",[16],9.41%
same,"viability, T/C",[17],11.7%
same,"viability, T/C",[18],12.3%
same,"viability, T/C",[19],1.11%
same,"viability, T/C",[20],1.3%
same,"viability, T/C",[21],1.35%
same,"viability, T/C",[22],1.2%
same,"viability, T/C",[23],2%
same,"viability, T/C",[24],1.13%
same,"viability, T/C",[25],0.88%
same,"viability, T/C",[26],0.73%
same,"viability, T/C",[27],0.55%
same,"viability, T/C",[28],0.62%
same,"viability, T/C",[29],1.1%
same,"viability, T/C",[30],0.74%
same,"viability, T/C",[31],0.12%
same,"viability, T/C",[32],0.17%
same,"viability, T/C",[33],0.16%
same,"viability, T/C",[34],0.2%
same,"viability, T/C",[35],0.34%
same,"viability, T/C",[36],0.24%
CCc1c2c(nc3ccc(O)cc13)-c1cc3c(c(=O)n1C2)COC(=O)[C@]3(O)CC + CN1CCN(c2cc(C(=O)Nc3cc4cc(-c5cnn(C)c5)ccc4cn3)ccn2)CC1,IC50,second compound 0.0316 µM,< 3.16 nM
same,IC50,second compound 0.1 µM,< 3.16 nM
same,IC50,second compound 0.316 µM,< 3.16 nM
same,IC50,second compound 1 µM,< 3.16 nM
same,IC50,second compound 3.16 µM,< 3.16 nM
same,IC50,second compound 10 µM,< 3.16 nM
same,"viability, T/C","second compound 0.0316 µM, first compound 0.00316 µM",46.2%
same,"viability, T/C","second compound 0.0316 µM, first compound 0.01 µM",34.1%
same,"viability, T/C",[1],28.7%
same,"viability, T/C",[2],25.2%
same,"viability, T/C",[3],17.5%
same,"viability, T/C",[4],6.45%
same,"viability, T/C","second compound 0.1 µM, first compound 0.00316 µM",35.9%
same,"viability, T/C","second compound 0.1 µM, first compound 0.01 µM",30.1%
same,"viability, T/C",[7],21.9%
same,"viability, T/C",[8],17.5%
same,"viability, T/C",[9],14.5%
same,"viability, T/C",[10],5.83%
same,"viability, T/C","second compound 0.316 µM, first compound 0.00316 µM",14.8%
same,"viability, T/C","second compound 0.316 µM, first compound 0.01 µM",12.7%
same,"viability, T/C",[13],10.8%
same,"viability, T/C",[14],4%
same,"viability, T/C",[15],2.32%
same,"viability, T/C",[16],1.82%
same,"viability, T/C","second compound 1 µM, first compound 0.00316 µM",1.37%
same,"viability, T/C","second compound 1 µM, first compound 0.01 µM",1.13%
same,"viability, T/C",[19],0.98%
same,"viability, T/C",[20],1.39%
same,"viability, T/C",[21],1.84%
same,"viability, T/C",[22],2.32%
same,"viability, T/C","second compound 3.16 µM, first compound 0.00316 µM",1.13%
same,"viability, T/C","second compound 3.16 µM, first compound 0.01 µM",0.69%
same,"viability, T/C",[25],1.06%
same,"viability, T/C",[26],1.74%
same,"viability, T/C",[27],1.87%
same,"viability, T/C",[28],2.05%
same,"viability, T/C","second compound 10 µM, first compound 0.00316 µM",0.09%
same,"viability, T/C","second compound 10 µM, first compound 0.01 µM",0.16%
same,"viability, T/C",[31],0.24%
same,"viability, T/C",[32],0.19%
same,"viability, T/C",[33],0.31%
same,"viability, T/C",[34],0.19%
O=c1[nH]cc(F)c(=O)[nH]1 + CN1CCN(c2cc(C(=O)Nc3cc4cc(-c5cnn(C)c5)ccc4cn3)ccn2)CC1,IC50,second compound 0.0316 µM,505 nM
same,IC50,second compound 0.1 µM,196 nM
same,IC50,second compound 0.316 µM,< 31.6 nM
same,IC50,second compound 1 µM,< 31.6 nM
same,IC50,second compound 3.16 µM,< 31.6 nM
same,IC50,second compound 10 µM,< 31.6 nM
same,"viability, T/C",[1],78.1%
same,"viability, T/C",[2],74.9%
same,"viability, T/C",[3],46.5%
same,"viability, T/C",[4],49.6%
same,"viability, T/C",[5],30.2%
same,"viability, T/C",[6],28.1%
same,"viability, T/C",[7],59.5%
same,"viability, T/C",[8],57.5%
same,"viability, T/C",[9],45.2%
same,"viability, T/C",[10],32.4%
same,"viability, T/C",[11],29%
same,"viability, T/C",[12],21.7%
same,"viability, T/C",[13],21.9%
same,"viability, T/C",[14],23.4%
same,"viability, T/C",[15],21.2%
same,"viability, T/C",[16],16.1%
same,"viability, T/C",[17],15.7%
same,"viability, T/C",[18],13.4%
same,"viability, T/C",[19],1.26%
same,"viability, T/C",[20],1.5%
same,"viability, T/C",[21],1.42%
same,"viability, T/C",[22],1.31%
same,"viability, T/C",[23],1.3%
same,"viability, T/C",[24],1.65%
same,"viability, T/C",[25],0.71%
same,"viability, T/C",[26],0.91%
same,"viability, T/C",[27],0.78%
same,"viability, T/C",[28],0.61%
same,"viability, T/C",[29],0.63%
same,"viability, T/C",[30],0.59%
same,"viability, T/C",[31],0.15%
same,"viability, T/C",[32],0.14%
same,"viability, T/C",[33],0.15%
same,"viability, T/C",[34],0.13%
same,"viability, T/C",[35],0.18%
same,"viability, T/C",[36],0.19%
